In ChEMBL document CHEMBL1151015, “Novel frameworks for trifluoromethyl ketone and phosphonate tsa inhibitors of type II PLA2” (Bioorg Med Chem Lett, 1997):
Values belong to the compound of their own block, whether it stands above or below them.

Columns and labels:
Homo sapiens [1] = species: Homo sapiens; assay: Compound was measured for the inhibitory activity against LTC4 formation in human monocyte at 30 uM concentration; format: functional; design: scale not given: the % may be the effect or the level left
[2] = target: T1, Cytosolic phospholipase A2 (Homo sapiens) (UniProt P47712); assay: Compound was measured for the inhibitory activity against Cytosolic phospholipase A2 (c-PLA2) at 100 uM concentration; design: scale not given: the % may be the effect or the level left
T1 sequence (whole entry): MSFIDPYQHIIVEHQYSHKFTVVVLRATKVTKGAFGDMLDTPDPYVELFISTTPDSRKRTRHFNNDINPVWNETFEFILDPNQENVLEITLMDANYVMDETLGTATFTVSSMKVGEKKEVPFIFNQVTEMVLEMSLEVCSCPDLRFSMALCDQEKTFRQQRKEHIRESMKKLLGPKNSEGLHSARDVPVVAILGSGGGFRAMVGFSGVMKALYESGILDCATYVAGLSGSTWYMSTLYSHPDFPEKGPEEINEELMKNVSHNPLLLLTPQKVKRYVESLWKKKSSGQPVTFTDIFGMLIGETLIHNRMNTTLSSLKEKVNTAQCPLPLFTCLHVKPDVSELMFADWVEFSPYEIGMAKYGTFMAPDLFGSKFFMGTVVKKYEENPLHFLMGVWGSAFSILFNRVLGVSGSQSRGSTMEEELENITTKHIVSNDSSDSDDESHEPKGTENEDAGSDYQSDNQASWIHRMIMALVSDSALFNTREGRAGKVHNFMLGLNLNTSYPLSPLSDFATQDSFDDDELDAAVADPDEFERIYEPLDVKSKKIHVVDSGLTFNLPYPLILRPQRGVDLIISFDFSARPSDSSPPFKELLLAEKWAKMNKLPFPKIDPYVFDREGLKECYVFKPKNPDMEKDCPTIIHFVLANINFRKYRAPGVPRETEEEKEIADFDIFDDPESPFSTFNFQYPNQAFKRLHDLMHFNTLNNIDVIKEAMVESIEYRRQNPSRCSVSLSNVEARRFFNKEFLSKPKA

Homo sapiens [3] = species: Homo sapiens; assay: Compound was measured for the inhibitory activity against LTC4 formation in human monocyte; not cell permeable; format: functional
[4] = target: T1, Cytosolic phospholipase A2 (Homo sapiens); assay: Compound was measured for the inhibitory activity against Cytosolic phospholipase A 2 (c-PLA2) at 30 uM concentration; design: scale not given: the % may be the effect or the level left
[5] = Dissociation constant of compound.; format: physicochemical
Homo sapiens [6] = species: Homo sapiens; assay: Compound was measured for the inhibitory activity against LTB4 formation in human whole blood at 30 uM concentration; format: functional; design: scale not given: the % may be the effect or the level left
[7] = pH dependence of compound; weak; format: ADME
Homo sapiens [8] = species: Homo sapiens; assay: Compound was measured for the inhibitory activity against LTC4 formation in human monocyte; not determined; not cell permeable; format: functional

Activity [2]: -36%
SMILES: O=C(O)c1ccc2cccc(C(=O)C(F)(F)F)c2c1
Activity (Homo sapiens [1]): -76%

Activity [4]: -40% | pKa [5]: 7.1
SMILES: CCCCCCCOc1ccc(C(=O)O)cc1CC(=O)C(F)(F)F
Activity (Homo sapiens [3]): not cell permeable

pKa [5]: 7.1
SMILES: CCCCCCCCCCOP(=O)(O)c1cc(OCc2ccccc2)ccc1/C=C/C(=O)O
Activity (Homo sapiens [6]): -90% | Activity (Homo sapiens [1]): -44%

pH dependence [7]: weak
SMILES: CCCCCCCCCCCCCCCCCCOP(=O)(O)c1cccc2ccc(C(=O)O)cc12
Activity (Homo sapiens [8]): not cell permeable
